Source: US20060258582A1, “Method of treating myelodysplastic syndromes” (Scios, Inc., priority 2004, published 2006)
pIC50: −log10 of the molar value.

Experiments:
[1] = test system: MDS CD34+ progenitors; experiment: methylcellulose clonogenic assay, MDS CD34+ progenitors; type: cell-based, human; conditions: for erythroid (BFU-E) and myeloid (CFU-GM) colony formation in MDS CD34+ bone marrow cells: in vitro, methylcellulose
Method: MDS BM-derived CD34+ cells from 19 patients with MDS (Table 5) were cultured in methylcellulose in the presence and absence of increasing concentrations of compound 57. Results are expressed as means+/−SEM of 19 independent experiments.
(A) Total colony numbers of (A) Blast Forming unit-erythroid (BFU-E) and (B) Colony forming unit-Granulocytic Macrophage (CFU-GM) before (control) and after compound 57 treatment (100 nM) of 19 patients with MDS (Table 5).
(§1) All participants in the study signed informed consent, approved by the institutional review board of UT Southwestern and Dallas VA Medical Center. Hematopoietic progenitor colony formation was determined by clonogenic assays in methylcellulose, as detailed in previous studies. A total of 1×10^4 isolated CD34+ progenitor cells in 0.4 ml IMDM+2% FBS were resuspended in 4 ml MethoCult® (Stem Cell Technologies) and vortexed vigorously. The CD34+ cell:methylcellulose mixture was dispensed into 35 mm culture dishes (1×10^3 cells/35 mm plate) using sterile 3 cc syringe with attached sterile 16-gauge blunt-end needle. Cell cultures were incubated at 37° C., 5% CO2 in air and >95% humidity for 14-16 days. Granulocyte/macrophage colony-forming (CFU-GM) units and erythroid burst forming units (BFU-E) from different samples were scored on day 14 of culture.

[2] = target: p38α (Homo sapiens, UniProt Q16539); experiment: direct enzymatic assay for inhibition of p38α; type: biochemical; conditions: direct enzymatic assays
Method: (§2) The p38α MAPK inhibitor compound 57 was synthesized by Medicinal Chemistry (Scios, Inc., Fremont, Calif.). compound 57 has an IC50 of 9 nM for inhibition of p38α based on direct enzymatic assays, about 10-fold selectivity for p38α over p38β, and at least 2000-fold selectivity for p38α over a panel of 20 other kinases, including other MAPKs.

[3] = target: p38β (Homo sapiens, UniProt Q15759); experiment: selectivity for p38α over p38β; type: biochemical
Method: as §2

[4] = test system: LPS-induced TNFα secretion in whole human blood; experiment: cell based assay, LPS-induced TNFα secretion in whole human blood; conditions: read-out: IC50 for inhibition of LPS-induced TNFα secretion
Method: Other in vitro assays can assess the production of TNF-α as a correlation to p38 MAP kinase activity. One such example is a Human Whole Blood Assay. In this assay, venous blood is collected from, e.g., healthy male volunteers into a heparinized syringe and is used within 2 hours of collection. Test compounds are dissolved in 100% DMSO and 1 μl aliquots of drug concentrations ranging from 0 to 1 mM are dispensed into quadruplicate wells of a 24-well microtiter plate (Nunclon Delta SI, Applied Scientific Co., San Francisco, Calif.). Whole blood is added at a volume of 1 ml/well and the mixture is incubated for 15 minutes with constant shaking (Titer Plate Shaker, Lab-Line Instruments, Inc., Melrose Park, Ill.) at a humidified atmosphere of 5% CO2 at 37° C. Whole blood is cultured either undiluted or at a final dilution of 1:10 with RPMI 1640 (Gibco 31800+NaHCO3, Life Technologies, Rockville, Md. and Scios, Inc., Sunnyvale, Calif.). At the end of the incubation period, 10 μl of LPS (E. coli 0111:B4, Sigma Chemical Co., St. Louis, Mo.) is added to each well to a final concentration of 1 or 0.1 μg/ml for undiluted or 1:10 diluted whole blood, respectively. The incubation is continued for an additional 2 hours. The reaction is stopped by placing the microtiter plates in an ice bath, and plasma or cell-free supernates are collected by centrifugation at 3000 rpm for 10 minutes at 4° C. […]

[5] = test system: normal CD34+ progenitors; experiment: methylcellulose clonogenic assay, cytokine-suppressed normal CD34+ progenitors; type: cell-based, human
Method: Primary bone marrow derived CD34+ cells were cultured in methylcellulose in the presence and absence of 20 ng/ml TNFα and with the indicated concentrations of compound 57 (nM). BFU-E and CFU-GM colonies were scored on Day 14. Results are expressed as means+/−S.E.M. of three independent experiments.
Primary bone marrow derived CD34+ cells were cultured in methylcellulose in the presence and absence of […] IFNγ and with the indicated concentrations of the p38α inhibitors (compound 57; nM) or compound 162. BFU-E and CFU-GM colonies were scored on Day 14. Results are expressed as means+/−S.E.M. of three independent experiments.
as §1, with “Cell cultures were incubated at 37° C., 5% CO2 in air and >95% humidity for 14-16 days.” left out

[6] = test system: TNFα secretion from BMMNC; experiment: basal and LPS-induced TNFα secretion from normal BMMNC, ELISA; type: cell-based; conditions: Homo sapiens, basal or LPS-induced normal BMMNC cultures, 24 h, read-out: IC50 for inhibition of TNFα secretion
Method: BMMNC (1×10^6) from a normal healthy donor were cultured in the absence and presence of increasing concentrations of compound 57 for 24 hours without or with 10 ng/ml LPS. TNFα concentration in cell supernatants were determined by ELISA. Figure represents Mean+/−SD of three independent experiments.
(§3) TNFα, IL-6, VEGF, and IFNγ concentrations of the cell culture supernatants were assayed using ELISA kits from BioSource International (Camarillo, Calif.). MCP-1, MMP-2 and MMP-9 concentrations were assayed using ELISA kits from R&D Systems.

[7] = test system: BMSC; experiment: cDNA microarray analysis of chemokines in TNFα- or IL-1β-stimulated BMSC; type: cell-based, human
Text: Details of microarray and data analysis have been described previously. The data was normalized using the maNorm function in array package of Bioconductor version 1.5.8. Differential expression values were expressed as the ratio of the median of background-subtracted fluorescence intensity of the experimental RNA to the median of background-subtracted fluorescence intensity of the control RNA. The total BMSC RNA was extracted from cells using Qiagen's RNeasy kit (Valencia, Calif.). Arrays were probed in quadruplicate for a total of 16 hybridizations: control versus TNFα (24 hours), TNFα versus compound 57+TNFα (24 hours), control versus IL-1β (24 hours), IL-1β versus compound 57+IL-1β (24 hours).

[8] = test system: IFNγ production; experiment: IFNγ production in IL-12 and IL-18-induced BMMNC, ELISA; type: cell-based; conditions: Homo sapiens, 24 hours, read-out: IC50 for block of IFNγ production
Method: BMMNC (1×10^6) from a normal healthy donor were stimulated with IL-12, IL-18 or both in the presence or absence of increasing concentrations of compound 57 for 24 h. IFN-γ concentration in cell supernatants was determined by ELISA. Figure represents Mean+/−SD of three independent experiments.
as §3

[9] = test system: IFNγ; experiment: induction of IFNγ by anti-CD3 antibody; type: cell-based; conditions: data not shown
[10] = microarray ratio IL-1β versus compound 57+IL-1β, 24 hours
[11] = microarray ratio TNFα versus compound 57+TNFα

Chain of p38α (Q16539 whole entry): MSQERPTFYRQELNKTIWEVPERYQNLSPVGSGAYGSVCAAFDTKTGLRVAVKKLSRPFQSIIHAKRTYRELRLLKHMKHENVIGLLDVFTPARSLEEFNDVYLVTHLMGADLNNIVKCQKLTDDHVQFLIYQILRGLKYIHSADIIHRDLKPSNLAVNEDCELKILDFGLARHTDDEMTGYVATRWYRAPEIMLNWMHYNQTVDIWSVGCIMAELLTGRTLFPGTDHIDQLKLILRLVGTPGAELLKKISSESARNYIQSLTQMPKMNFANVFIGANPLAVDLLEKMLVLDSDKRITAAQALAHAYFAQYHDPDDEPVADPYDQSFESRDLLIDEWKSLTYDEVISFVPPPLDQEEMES
Chain of p38β (Q15759 whole entry): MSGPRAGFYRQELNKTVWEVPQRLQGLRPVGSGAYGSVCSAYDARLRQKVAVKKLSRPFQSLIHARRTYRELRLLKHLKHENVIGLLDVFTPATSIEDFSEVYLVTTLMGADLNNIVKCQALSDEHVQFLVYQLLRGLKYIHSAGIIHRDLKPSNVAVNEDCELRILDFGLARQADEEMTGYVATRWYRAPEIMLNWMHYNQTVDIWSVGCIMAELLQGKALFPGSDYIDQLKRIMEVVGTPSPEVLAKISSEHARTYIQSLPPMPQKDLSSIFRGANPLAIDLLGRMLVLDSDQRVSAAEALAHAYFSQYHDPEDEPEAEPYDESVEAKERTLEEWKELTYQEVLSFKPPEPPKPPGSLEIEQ

Compound: COc1cccc(-c2cc(=O)c3ccccc3o2)c1N [PD 98059]
- erythroid (BFU-E) and myeloid (CFU-GM) colony formation in MDS CD34+ bone marrow cells [1]: not observed

Compound: CCc1nc(-c2ccc(OC)cc2)[nH]c1-c1ccncc1 [SB 202474]
- erythroid (BFU-E) and myeloid (CFU-GM) colony formation in MDS CD34+ bone marrow cells [1]: not observed

Compound: COc1cc2c(cc1C(=O)N1C[C@H](C)N(Cc3ccc(F)cc3)C[C@H]1C)c(C(=O)C(=O)N(C)C)cn2C [compound 57]
- pIC50 [2]: 8.05
- selectivity for p38α over p38β [3]: about 10 fold
- pIC50 [4]: 5.89
- increase in both BFU-E and CFU-GM colony numbers compared to those without compound ([5]; TNFα-treated CD34+ progenitors, 50 nM compound): about 100%
- increase in myeloid and erythroid colony numbers in MDS progenitors ([1]; 20 nM-100 nM compound): 2-3 fold
- pIC50 [6]: 7.30
- CCL2 (MCP-1) differential expression, C57 + IL-1β [7, 10]: −1.4
- CCL7 (MCP3) differential expression, C57 + IL-1β [7, 10]: −1.5
- CXCL1 (GROα) differential expression, C57 + IL-1β [7, 10]: −1.6
- CXCL3 (GROγ) differential expression, C57 + IL-1β [7, 10]: 1.3
- CXCL6 (GCP2) differential expression, C57 + IL-1β [7, 10]: −1.6
- CXCL10 (IP10) differential expression, C57 + IL-1β [7, 10]: 1.0
- CXCL11 (ITAC) differential expression, C57 + IL-1β [7, 10]: 0.0
- CXCL16 (SR-PSOX) differential expression, C57 + IL-1β [7, 10]: −4.2
- CCL2 (MCP-1) differential expression, C57 + TNFα (24 h) [7, 11]: −1.7
- CCL7 (MCP3) differential expression, C57 + TNFα (24 h) [7, 11]: −2.2
- CXCL1 (GROα) differential expression, C57 + TNFα (24 h) [7, 11]: −2.9
- CXCL3 (GROγ) differential expression, C57 + TNFα (24 h) [7, 11]: −1.6
- CXCL6 (GCP2) differential expression, C57 + TNFα (24 h) [7, 11]: −5.3
- CXCL10 (IP10) differential expression, C57 + TNFα (24 h) [7, 11]: −2.9
- CXCL11 (ITAC) differential expression, C57 + TNFα (24 h) [7, 11]: −1.4
- CXCL16 (SR-PSOX) differential expression, C57 + TNFα (24 h) [7, 11]: 1.4
- pIC50 [8]: > 7.30
- induction of IFNγ by anti-CD3 antibody [9]: not inhibited

Compound: CN(C)C(=O)C(=O)c1c[nH]c2cc(Cl)c(C(=O)N3CCC(Cc4ccc(F)cc4)CC3)cc12 [compound 162]
- IFNγ-induced suppression of erythroid and myeloid colony formation ([5]; normal CD34+ progenitors, IFNγ, day 14): reverses
